Experimental data taken from the C3SDB collision cross section collection.
Values belong to the compound of their own block, whether it stands above or below them.

Conditions: instrument: TW, calibrated with phosphatidylcholines (ESI+) and phosphatidylethanolamines (ESI-)

- collision cross section (N2) ([M+H]+): 302.2 Å²
SMILES: CCCCCCCCCCCCC=CC[C@@H](O)[C@H](COP(=O)([O-])OCC[N+](C)(C)C)NC(=O)CCCCCCCCCCCCCCCCCCCCCCC [SM(d18:1/24:0)]

- collision cross section (N2) ([M+H]+): 287.8 Å²
SMILES: CCCCCCCCCCCCC=CC[C@@H](O)[C@H](CO[C@@H]1O[C@H](CO)[C@@H](O)C(O)C1O)NC(=O)CCCCCCCCCCCCCCCCCCC (stereo partly specified) [GlcCer(d18:1/20:0)]

- collision cross section (N2) ([M+H]+): 279.1 Å²
- collision cross section (N2) ([M-H]-): 268 Å²
SMILES: CCCCCCCCCCCCC=CC[C@@H](O)[C@H](CO)NC(=O)CCCCCCCCCCCCCCCCCCCCCCC [Cer(d18:1/24:0)]

- collision cross section (N2) ([M+H]+): 300.7 Å²
SMILES: CCCCCCCCCCCCC=CC[C@@H](O)[C@H](COP(=O)([O-])OCC[N+](C)(C)C)NC(=O)CC=CCCCCCCCCCCCCCCCCCCCC [SM(d18:1/24:1)]

- collision cross section (N2) ([M+H]+): 271.9 Å²
SMILES: CCCCCCCCCCCCC=CC[C@@H](O)[C@H](CO)NC(=O)CCCCCCCCCCCCCCCCCCCCC [Cer(d18:0/22:1)]

- collision cross section (N2) ([M+H-H2O]+): 242.3 Å²
SMILES: CCCCCCCCCCCCCCCC(=O)O[C@@H](CO)COC(=O)CCCCCCCCCCC [DG(14:0/14:0)]

- collision cross section (N2) ([M+H]+): 292.2 Å²
SMILES: CCCCCCCCCCCCC=CC[C@@H](O)[C@H](COP(=O)([O-])OCC[N+](C)(C)C)NC(=O)CCCCCCCCCCCCCCCCCCC [SM(d18:1/20:0)]

- collision cross section (N2) ([M+H]+): 257.6 Å²
- collision cross section (N2) ([M-H]-): 248.5 Å²
SMILES: CCCCCCCCCCCCC=CC[C@@H](O)[C@H](CO)NC(=O)CC=CCCCCCCCCCCCCCC [Cer(d18:1/18:1)]

- collision cross section (N2) ([M+H-H2O]+): 270.5 Å²
SMILES: CCCCCCCCCCCCCCCCCCCCCC(=O)O[C@@H](CO)COC(=O)CCCCCCCCCCCCC [DG(18:0/18:0)]

- collision cross section (N2) ([M+H]+): 282.6 Å²
- collision cross section (N2) ([M+Na]+): 282.2 Å²
SMILES: CCCCCCCCCCCCC=CC[C@@H](O)[C@H](CO[C@@H]1O[C@H](CO)[C@@H](O)C(O)C1O)NC(=O)CCCCCCCCCCCCCCCCC (stereo partly specified) [GlcCer(d18:1/18:0)]

Further lines, the compound ahead of its results:

SMILES: CCCCC/C=C\C/C=C\C/C=C\CCCCCCC(=O)OC[C@H](COP(=O)(O)OC[C@H](N)C(=O)O)OC(=O)CCCCCCC/C=C\C/C=C\CCCCC [PS(38:5)]
- collision cross section (N2) ([M-H]-): 279 Å²

SMILES: CCCCC/C=C\C/C=C\C/C=C\C/C=C\CCCC(=O)O[C@H](CO/C=C\CCCCCCCCCCCCCCCCCC)COP(=O)(O)OCCN [PE(p40:4)]
- collision cross section (N2) ([M+H]+): 286.9 Å²
- collision cross section (N2) ([M+Na]+): 290.1 Å²
- collision cross section (N2) ([M-H]-): 276.1 Å²

SMILES: CCCCCCCC/C=C\CCCCCCCC(=O)OC[C@H](COP(=O)(O)O[C@H]1C(O)C(O)C(O)[C@@H](OP(=O)(O)O)C1O)OC(=O)CCCCCCC/C=C\CCCCCCCC (stereo partly specified) [PIP(36:2)]
- collision cross section (N2) ([M+H-H2O]+): 295.5 Å²

SMILES: CC/C=C\C/C=C\C/C=C\C/C=C\C/C=C\CCCCCC(=O)O[C@@H](CO)COC(=O)CCCC/C=C\C/C=C\C/C=C\CCCCC [DG(20:4/20:4)]
- collision cross section (N2) ([M+H-H2O]+): 262.6 Å²

SMILES: CCCCCCCCCCCCCCCCCCC(=O)O[C@H](COC(=O)CCCCCCCCCCCCCCCC)COP(=O)([O-])OCC[N+](C)(C)C [PC(36:0)]
- collision cross section (N2) ([M+H]+): 292.5 Å²

SMILES: CC/C=C\C/C=C\C/C=C\C/C=C\C/C=C\C/C=C\CCC(=O)OC[C@H](COP(=O)(O)OCCN)OC(=O)CCC/C=C\C/C=C\C/C=C\C/C=C\C/C=C\CC [PE(42:11)]
- collision cross section (N2) ([M+H]+): 280.2 Å²

SMILES: CCCCCCCCCCCCCCCC/C=C\OC[C@@H](O)COP(=O)([O-])OCC[NH3+] [LPE(p18:0)]
- collision cross section (N2) ([M+H]+): 222.5 Å²
- collision cross section (N2) ([M+Na]+): 222 Å²
- collision cross section (N2) ([M-H]-): 211.4 Å²

SMILES: CCCCC/C=C\C/C=C\C/C=C\CCCCC(=O)OC[C@H](CO)OC(=O)CCCCCCC/C=C\CCCCCCCC [DG(18:2/18:2)]
- collision cross section (N2) ([M+H-H2O]+): 255.9 Å²

SMILES: CC/C=C\C/C=C\C/C=C\C/C=C\C/C=C\CCCC(=O)OC[C@H](COP(=O)(O)OC[C@@H](O)CO)OC(=O)CCCCCCCCC/C=C\C/C=C\CCCCC [PG(40:7)]
- collision cross section (N2) ([M+Na]+): 288.3 Å²
